{"source": "patent US20140128733A1", "about": "“SYSTEMS AND METHODS FOR HEMODYNAMIC DETECTION OF CIRCULATORY ANOMALIES” (Cardiox Corporation, priority 2008, published 2014)", "key": {"[1]": {"experiment": "Excitation and fluorescence emission wavelengths of the dyes (FIG. 2)", "format": "physicochemical", "text": "Looking to FIG. 2 in this regard, the excitation signal for fluorescein dye is represented at curve 30 which is an excitation signal at less than about 500 nanometers (nm). A resultant fluorescence emission from the excitation at 30 is shown at curve 32, at a wavelength of about 525 nm.\n(§1) Looking to the ICG dye spectrum, an excitation curve is shown at 34, having a peak excitation wavelength at about 785 nanometers. Correspondingly, the fluorescence emission from excitation at curve 34 is represented at curve 36 with a peak emission wavelength of about 830 nanometers. Directed across FIG. 2 is a curve 38 representing the level of constant signal attenuation or absorption of about 37% resulting from passage of signal through tissue. Note that if a blood vessel is about one millimeter beneath the surface of skin, the system would perform at about 37% of the original intensity of the excitation signal and fluorescence signal for the case of ICG dye indicator. In contrast, a 37% decrease in excitation and emission signal level would result for the fluorescein dye indicator at a tissue thickness of only 0.25 mm. Since the blood vessels being targeted are at least 1 mm below the skin surface, the attenuation and associated signal loss would be much larger. Therefore, ICG dye is the preferred indicator.\nWhen an ICG indicator within the bloodstream reaches the site of irradiation with 785 nm (laser) light, the fluorescent moiety within the ICG indicator is excited as described in connection with FIG. 2 to an elevated energy state for a brief period. As the excited moiety returns to its normal energy state, it emits light at a longer wavelength (viz., 830 nm) and the difference between the excitation wavelength (viz., 785 nm) and the fluorescence emission wavelength (viz., 830 nm) is known as the Stokes Shift. This Stokes Shift of nominally 45 nm allows the fluoresce emission to be extracted by using a interferential or other type of optical filter to reflect or otherwise attenuate all but the wavelength band of interest (viz., 820 to 840 nm)."}, "[2]": {"experiment": "Excitation and fluorescence signal attenuation through tissue versus depth of artery (FIG. 2)", "format": "physicochemical", "conditions": "FIG. 2 curve 38", "text": "as §1\nTurning again to the ICG dye spectrum, note that the excitation signal 34 for ICG intersects curve 38 at a depth allowing for readily reaching blood vessels, for example within the pinna (e.g., scaphoid fossa) of the ear. Accordingly, ICG dye is usable as a circulatory tracking agent when detecting through skin, and ICG dye was the indicator elected for subsequent study."}}, "note": "Structures can show the parent of a compound that is named as a salt."}
{"compound": "CC1(C)C(/C=C/C=C/C=C/C=C2\\N(CCCCS(=O)(=O)O)c3ccc4ccccc4c3C2(C)C)=[N+](CCCCS(=O)(=O)[O-])c2ccc3ccccc3c21", "note": "[ICG, 2-[7-[1,1-dimethyl-3-(4-sulfobutyl)benz[e]indolin-2-ylidene]-1,3,5-heptatrienyl]-1,1-dimethyl-3-(4-sulfobutyl)-1H-benz[e]indolium hydroxide, inner salt, sodium salt]", "values": [{"measurement": "excitation wavelength", "setting": "[1]; FIG. 2", "value": "about 785 nm"}, {"measurement": "fluorescence emission wavelength", "setting": "[1]; FIG. 2", "value": "about 830 nm"}, {"measurement": "Stokes Shift", "setting": "[1]; difference between excitation and fluorescence emission wavelength", "value": "~45", "unit": "nm"}, {"measurement": "tissue depth at constant signal attenuation of about 37%", "setting": "[2]", "value": "about one"}]}
